Experimental data from publication PMC9615537 (Journal of Pharmaceutical Analysis, 2022).

Assay: Metabolic identification of PEP06 in vitro, all matrices together
Assay type: in vitro ADME
Conditions: semi-quantitative, Table S3

- Relative abundance of metabolite (peak area vs parent): most abundant metabolite
Sequence: RGDRGDMHSHRDFQPVLH [M6]
